Where two headings read alike, the source gives them in different places.
Target: T1, α7 nicotinic ACh receptor ion channel expressed in mammalian HEK 293 cells (Rattus norvegicus, UniProt Q05941)
T1 construct: expressed in transfected cells
Test: Ca2+-sensitive fluorescence-based assay for α7 nicotinic acetylcholine receptor channel function (FLIPR), agonist activity
Type: cell-based
Method: II) A Ca^2+-Sensitive, Fluorescence-Based Assay α-7 for Nicotinic Acetylcholine Receptor Channel Function in Mammalian Cells (“FLIPR”).
Lead compounds are evaluated for agonist activity at the α7 nicotinic ACh receptor ion channel expressed in mammalian HEK 293 cells. Agonist potency and efficacy values are determined from kinetic fluorescence Ca^2+ influx measurements made using a 384 well FLIPR (Fluorescence Image Plate Reader). The utility of fluorescent indicators for measuring changes in intracellular divalent cation concentrations, particularly Ca^2+, for drug discovery endeavors is well documented (Rudiger, R., et al., Nature Reviews, 2003, 4:579-586; Gonzalez J. E., et al., Receptors and Channels, 2002, 8:283-295). In this assay, channel expressing HEK cell lines seeded in 384 well assay plates are loaded with a membrane permeant fluorescent Ca^2+ indicator dye, whose 510 nm green emission signal increases in response to elevation of intracellular Ca^2+ concentration. The basal fluorescence from the cells is monitored in real time, followed by the acute addition of test compounds. If the compound is an agonist at any of the non-selective cation channels, the latter open and allow the movement of extracellular Ca^2+ ions into the cell cytoplasm, where they bind to the Ca^2+ indicator dye, and produce an increase in fluorescence output signal, which is detected by a cooled CCD imaging camera.
Reagents: The acetomethoxy (AM) ester of the Ca^2+ indicator dye Fluo-4 was obtained from InVitrogen, (Carlsbad, Calif.). Acetylcholine and all buffer constituents were purchased from Sigma Chemical Company, St. Louis, Mo. G418 and Minimal Essential Medium were purchased from InVitrogen Life Technologies, Carlsbad, Calif. Fetal bovine serum was purchased from (InVitrogen, Carlsbad, Calif.).
HEK-293 cells were grown in Minimal Essential Medium containing 10% (v/v) fetal bovine serum at 37° C. in a 5% CO2 incubator. HEK-293 cells stably expressing the ion channels were grown in the same medium with the addition of 500 μg/ml G418.
HEK-293 cells expressing the ion channels of interest were plated in 384 well, black-walled, clear-bottomed, poly-D-lysine coated plates at a density of ˜20,000 cells/well in 20 μl of Minimal Essential Medium containing 10% (v/v) fetal bovine serum and incubated for 2 days at 29° C. in a 5% CO2 incubator. Prior to assay, cells were loaded with the Fluo-4 AM ester. Cell loading was accomplished by removing the culture medium and replacing it with 30 μl/well of the AM ester of the dye (5 μM) mixed with Hanks Balanced Salt Solution (#14175-095) containing 20 mM HEPES, 2.5 mM probenecid, 0.5 mM CaCl2, 1 mM MgCl2 and 10 μM atropine. Dye loading was allowed to proceed for 90 minutes at room temperature at which time the dye loading solution was removed and replaced with 40 μl/well of Hanks buffer. Cells loaded with dye were loaded onto a FLIPR384 (Molecular Devices, Sunnyvale, Calif.). Fluo-4 dye was excited using the 488 nm line of an argon laser. Emission was filtered using a 540+/−30 nm bandpass filter. For evaluation of the effects of test compounds using the Ca^2+ flux assay, compounds to be tested were provided in assay ready plates. For nicotinic receptor ion channel expressing cells, the assay was initiated by the addition of 20 μl/well of Hanks buffer containing test compounds. For all assays, data were collected at 1 Hz for 10 seconds (baseline), at which time the compound containing stimulus buffers are added, and further measurements collected at 0.33 Hz for 3 min.
The statistical robustness of the nicotinic receptor Ca^2+ flux assays is determined from blanks and totals wells. The totals wells define maximal channel activation for each compound test plate (Maximum efficacious dose of acetylcholine), and the blanks wells which contain matched DMSO only, define zero channel activation. […]

[1] = FLIPR α7 (EC50, nM), HEK 293 cells, Ca2+ flux, agonist potency
[2] = FLIPR α7 activity rating (EC50, nM), HEK 293 cells, Ca2+ flux, class rating of EC50

T1 sequence (Q05941 23-502): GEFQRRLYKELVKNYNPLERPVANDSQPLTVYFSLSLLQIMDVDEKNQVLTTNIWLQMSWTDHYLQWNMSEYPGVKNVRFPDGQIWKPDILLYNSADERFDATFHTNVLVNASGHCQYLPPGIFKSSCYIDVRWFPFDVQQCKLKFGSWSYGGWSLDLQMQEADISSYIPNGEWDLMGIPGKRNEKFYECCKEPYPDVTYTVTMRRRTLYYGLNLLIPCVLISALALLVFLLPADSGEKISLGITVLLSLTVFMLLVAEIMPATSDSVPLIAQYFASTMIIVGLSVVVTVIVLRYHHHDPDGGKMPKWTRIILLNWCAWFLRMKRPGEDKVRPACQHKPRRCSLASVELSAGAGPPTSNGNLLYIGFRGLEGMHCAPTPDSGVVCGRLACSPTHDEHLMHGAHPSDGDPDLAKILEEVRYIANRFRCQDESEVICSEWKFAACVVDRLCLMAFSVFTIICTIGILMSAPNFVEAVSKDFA

| SMILES | EC50 [1] | EC50 [2] | EC50 |
| --- | --- | --- | --- |
| Cc1cc2nc3n(c2cc1C)C[C@]1(CN2CCC1CC2)O3 (single isomer, unassigned) [Example 5b] | > 100000 nM | > 1e+06 nM |  |
| Brc1nc2n(c1Br)C[C@]1(CN3CCC1CC3)O2 (single isomer, unassigned) [Example 1a] | 5690 nM | 1000 to 100000 nM |  |
| Cc1cccc2c1nc1n2C[C@@]2(CN3CCC2CC3)O1 (single isomer, unassigned) [Example 10b] | 9.1 nM | < 100 nM |  |
| Cc1c(Br)nc2n1CC1(CN3CCC1CC3)O2 (racemic) [Example 3b, 6-Bromo-5-methyl-3H-1′-azaspiro[imidazo[2,1-b]oxazole-2,3′-bicyclo[2.2.2]octane]] | 71.4 nM | < 100 nM |  |
| FC(F)(F)c1ccc2nc3n(c2c1)C[C@]1(CN2CCC1CC2)O3 (single isomer, unassigned) [Example 8c] |  | > 1e+06 nM | > 100000 nM |
| Cc1nc2c(cc1Br)nc1n2CC2(CN3CCC2CC3)O1 (racemic) [Example 18, 7-Bromo-6-methyl-3H-1′-azaspiro[oxazolo[2′,3′:2,3]imidazo[4,5-b]pyridine-2,3′-bicyclo[2.2.2]octane]] | 967 nM | 100 to 1000 nM |  |
| Clc1nc2n(n1)CC1(CN3CCC1CC3)O2 (racemic) [Example 16, 2-Chloro-6H-1′-azaspiro[oxazolo[3,2-b][1,2,4]triazole-5,3′-bicyclo[2.2.2]octane]] | 174 nM | 100 to 1000 nM |  |
| Clc1cccc2nc3n(c12)C[C@@]1(CN2CCC1CC2)O3 (single isomer, unassigned) [Example 9c] | 347 nM | 100 to 1000 nM |  |
| COc1ccc(-c2cccc3c2nc2n3C[C@@]3(CN4CCC3CC4)O2)cc1 (single isomer, unassigned) [Example 12b] | 28 nM | < 100 nM |  |
| c1ccc2c(c1)nc1n2C[C@]2(CN3CCC2CC3)O1 (single isomer, unassigned) [Example 4b] | 6660 nM | 1000 to 100000 nM |  |
| Clc1cccc2c1nc1n2C[C@@]2(CN3CCC2CC3)O1 (single isomer, unassigned) [Example 9b] | 24.6 nM | < 100 nM |  |
| Brc1cnc2c(c1)nc1n2CC2(CN3CCC2CC3)O1 (racemic) [Example 19, 7-Bromo-3H-1′-azaspiro[oxazolo[2′,3′:2,3]imidazo[4,5-b]pyridine-2,3′-bicyclo[2.2.2]octane]] | 49 nM | < 100 nM |  |
| Cc1cccc2c1nc1n2C[C@]2(CN3CCC2CC3)O1 (single isomer, unassigned) [Example 10a] | 263 nM | 100 to 1000 nM |  |
| c1nc2n(n1)CC1(CN3CCC1CC3)O2 (racemic) [Example 17, 6H-1′-Azaspiro[oxazolo[3,2-b][1,2,4]triazole-5,3′-bicyclo[2.2.2]octane]] | 321 nM | 100 to 1000 nM |  |
| COc1ccc2c(c1)nc1n2C[C@@]2(CN3CCC2CC3)O1 (single isomer, unassigned) [Example 6b] | 10.3 nM | < 100 nM |  |
| Cc1ccc2nc3n(c2c1)C[C@@]1(CN2CCC1CC2)O3 (single isomer, unassigned) [Example 7a] | 35 nM | < 100 nM |  |
| COc1ccc2c(c1)nc1n2C[C@]2(CN3CCC2CC3)O1 (single isomer, unassigned) [Example 6a] | 1430 nM | 1000 to 100000 nM |  |
| FC(F)(F)c1ccc2nc3n(c2c1)C[C@@]1(CN2CCC1CC2)O3 (single isomer, unassigned) [Example 8b] |  | 1000 to 100000 nM | 7190 nM |
| COc1ccc(-c2cccc3c2nc2n3C[C@]3(CN4CCC3CC4)O2)cc1 (single isomer, unassigned) [Example 12a] | > 100000 nM | > 1e+06 nM |  |

| SMILES | EC50 [1] | EC50 [2] | EC50 |
| --- | --- | --- | --- |
| Clc1cnc2c(c1)nc1n2CC2(CN3CCC2CC3)O1 (racemic) [Example 20, 7-Chloro-3H-1′-azaspiro[oxazolo[2′,3′:2,3]imidazo[4,5-b]pyridine-2,3′-bicyclo[2.2.2]octane]] | 66 nM | < 100 nM |  |
| Clc1nc2n(c1Cl)C[C@]1(CN3CCC1CC3)O2 [Example 2a, (S)-5,6-Dichloro-3H-1′-azaspiro[imidazo[2,1-b]oxazole-2,3′-bicyclo[2.2.2]octane]] | 1500 nM | 1000 to 100000 nM |  |
| Brc1nc2n(c1Br)C[C@@]1(CN3CCC1CC3)O2 (single isomer, unassigned) [Example 1b] | 19.6 nM | < 100 nM |  |
| FC(F)(F)c1cccc2c1nc1n2C[C@@]2(CN3CCC2CC3)O1 (single isomer, unassigned) [Example 11b] | 22 nM | < 100 nM |  |
| c1cncc(-c2ccc3c(c2)nc2n3C[C@@]3(CN4CCC3CC4)O2)c1 (single isomer, unassigned) [Example 13b] | 634 nM | 100 to 1000 nM |  |
| FC(F)(F)c1ccc2c(c1)nc1n2C[C@]2(CN3CCC2CC3)O1 (single isomer, unassigned) [Example 8d] | 1330 nM | 1000 to 100000 nM |  |
| Cc1ccc2c(c1)nc1n2C[C@@]2(CN3CCC2CC3)O1 (single isomer, unassigned) [Example 7b] | 5.1 nM | < 100 nM |  |
| c1ccc2c(c1)nc1n2C[C@@]2(CN3CCC2CC3)O1 (single isomer, unassigned) [Example 4a] | 13.6 nM | < 100 nM |  |
| c1ccc(-c2cn3c(n2)O[C@@]2(CN4CCC2CC4)C3)cc1 [Example 21a, (S)-6-Phenyl-3H-1′-azaspiro[imidazo[2,1-b]oxazole-2,3′-bicyclo[2.2.2]octane]] | 10 nM | < 100 nM |  |
| c1ccc(-c2nc3n(n2)C[C@]2(CN4CCC2CC4)O3)cc1 [Example 14a, (S)-2-Phenyl-6H-1′-azaspiro[oxazolo[3,2-b][1,2,4]triazole-5,3′-bicyclo[2.2.2]octane]] | 437 nM | 100 to 1000 nM |  |
| Clc1cccc2c1nc1n2C[C@]2(CN3CCC2CC3)O1 (single isomer, unassigned) [Example 9a] | 12100 nM | 1000 to 100000 nM |  |
| Clc1nc2n(c1Cl)C[C@@]1(CN3CCC1CC3)O2 [Example 2b, (R)-5,6-Dichloro-3H-1′-azaspiro[imidazo[2,1-b]oxazole-2,3′-bicyclo[2.2.2]octane]] | 14.2 nM | < 100 nM |  |
| Cc1nc2n(c1Br)CC1(CN3CCC1CC3)O2 (racemic) [Example 3a, 5-Bromo-6-methyl-3H-1′-azaspiro[imidazo[2,1-b]oxazole-2,3′-bicyclo[2.2.2]octane]] | 36.1 nM | < 100 nM |  |
| Cc1cc2nc3n(c2cc1C)C[C@@]1(CN2CCC1CC2)O3 (single isomer, unassigned) [Example 5a] | 65.3 nM | < 100 nM |  |
| FC(F)(F)c1ccc2c(c1)nc1n2C[C@@]2(CN3CCC2CC3)O1 (single isomer, unassigned) [Example 8a] | 4.7 nM | < 100 nM |  |
| c1ccc(-c2nc3n(n2)C[C@@]2(CN4CCC2CC4)O3)cc1 [Example 14b, (R)-2-Phenyl-6H-1′-azaspiro[oxazolo[3,2-b][1,2,4]triazole-5,3′-bicyclo[2.2.2]octane]] | 4.1 nM | < 100 nM |  |
| c1cncc(-c2ccc3c(c2)nc2n3C[C@]3(CN4CCC3CC4)O2)c1 (single isomer, unassigned) [Example 13a] | 2990 nM | 1000 to 100000 nM |  |
| Brc1nc2n(n1)CC1(CN3CCC1CC3)O2 (racemic) [Example 15, 2-Bromo-6H-1′-azaspiro[oxazolo[3,2-b][1,2,4]triazole-5,3′-bicyclo[2.2.2]octane]] | 362 nM | 100 to 1000 nM |  |
| Clc1cccc2nc3n(c12)C[C@]1(CN2CCC1CC2)O3 (single isomer, unassigned) [Example 9d] | 3950 nM | 1000 to 100000 nM |  |

From patent US10174052B2, “Quinuclidine compounds as α-7 nicotinic acetylcholine receptor ligands” (BRISTOL-MYERS SQUIBB COMPANY, priority 2014, dated 2019)
